Reference: paper PMC9027111, “Morphing Natural Product Platensimycin via Heck, Sonogashira, and One-Pot Sonogashira/Cycloaddition Reactions to Produce Antibiotics with In Vivo Activity” (Antibiotics, 2022)
≈ marks a conversion by molar mass, not a printed value.

Legend:
S. aureus ATCC 29213 = assay: MIC determination (LB agar dilution), S. aureus ATCC 29213; format: cell-based; conditions: Staphylococcus aureus, ATCC29213, at least two replicates
Protocol: (§1) All of the tested compounds were prepared to different concentrations with methanol, and 150 μL of the respective methanol solution was used to mix with 15 mL LB (Luria–Bertani) medium with 1% agar in each Petri dish. Linezolid and PTM were used as reference compounds for comparison. In vitro bioassay for compounds was carried out using clinical strains of S. aureus, E. coli, and Klebsilla pneumoniae. The bacteria were cultivated in LB medium and incubated for 16 h at 37 °C, 250 rpm. The resulting bacteria were diluted to approximate 0.25 at OD600, which were further diluted 10_4-fold. The diluted bacteria (2 μL) were added to Petri dish containing the respective compounds. The resulting Petri dishes were incubated for 16 h at 37 °C. The determination of MIC is the concentration of Petri dishes with no visible growth of bacteria.

MSSA 1 = assay: MIC determination (LB agar dilution), clinical MSSA strain 1; format: cell-based; conditions: Staphylococcus aureus, at least two replicates
Protocol: as §1

MSSA 2 = assay: MIC determination (LB agar dilution), clinical MSSA strain 2; format: cell-based; conditions: Staphylococcus aureus, at least two replicates
Protocol: as §1

MRSA 3 = assay: MIC determination (LB agar dilution), clinical MRSA strain 3; format: cell-based; conditions: Staphylococcus aureus, at least two replicates
Protocol: as §1

MRSA 4 = assay: MIC determination (LB agar dilution), clinical MRSA strain 4; format: cell-based; conditions: Staphylococcus aureus, at least two replicates
Protocol: as §1

MRSA = format: in vivo; conditions: 50 mg/kg intraperitoneal at 1 h and 5 h after infection, tracked 7 days, n = 5

| MIC (S. aureus ATCC 29213) [µg/mL] | MIC (MSSA 1) [µg/mL] | MIC (MSSA 2) [µg/mL] | MIC (MRSA 3) [µg/mL] | MIC (MRSA 4) [µg/mL] | SMILES | survival of infected mice (MRSA) [%] |
| --- | --- | --- | --- | --- | --- | --- |
| 16 (≈ 24.9 µM) | 16 (≈ 24.9 µM) | 16 (≈ 24.9 µM) | 16 (≈ 24.9 µM) | 16 (≈ 24.9 µM) | CC(=O)C1=C(C)OC(Cc2ccccc2)=C2C(=O)C(C)(CCC(=O)Nc3c(O)ccc(C(=O)O)c3O)C3C4CC5CC3(CC5(C)O4)C12 (stereo not shown) [C1] |  |
| 16 (≈ 24.4 µM) | 16 (≈ 24.4 µM) | 16 (≈ 24.4 µM) | 16 (≈ 24.4 µM) | 16 (≈ 24.4 µM) | CC(=O)C1=C(C)OC(Cc2ccc(C)cc2)=C2C(=O)C(C)(CCC(=O)Nc3c(O)ccc(C(=O)O)c3O)C3C4CC5CC3(CC5(C)O4)C12 (stereo not shown) [C2] |  |
| 32 (≈ 47.8 µM) | 32 (≈ 47.8 µM) | 32 (≈ 47.8 µM) | 32 (≈ 47.8 µM) | 32 (≈ 47.8 µM) | CCc1ccc(CC2=C3C(=O)C(C)(CCC(=O)Nc4c(O)ccc(C(=O)O)c4O)C4C5CC6CC4(CC6(C)O5)C3C(C(C)=O)=C(C)O2)cc1 (stereo not shown) [C3] |  |
| 32 (≈ 45.9 µM) | 32 (≈ 45.9 µM) | 32 (≈ 45.9 µM) | 32 (≈ 45.9 µM) | 32 (≈ 45.9 µM) | CCCCc1ccc(CC2=C3C(=O)C(C)(CCC(=O)Nc4c(O)ccc(C(=O)O)c4O)C4C5CC6CC4(CC6(C)O5)C3C(C(C)=O)=C(C)O2)cc1 (stereo not shown) [C4] |  |
| 16 (≈ 24.3 µM) | 16 (≈ 24.3 µM) | 16 (≈ 24.3 µM) | 16 (≈ 24.3 µM) | 16 (≈ 24.3 µM) | CC(=O)C1=C(C)OC(Cc2cccc(F)c2)=C2C(=O)C(C)(CCC(=O)Nc3c(O)ccc(C(=O)O)c3O)C3C4CC5CC3(CC5(C)O4)C12 (stereo not shown) [C5] |  |
| 32 (≈ 47.3 µM) | 32 (≈ 47.3 µM) | 32 (≈ 47.3 µM) | 32 (≈ 47.3 µM) | 32 (≈ 47.3 µM) | CC(=O)C1=C(C)OC(Cc2ccc(Cl)cc2)=C2C(=O)C(C)(CCC(=O)Nc3c(O)ccc(C(=O)O)c3O)C3C4CC5CC3(CC5(C)O4)C12 (stereo not shown) [C7] |  |

More lines, now with the values behind:

| SMILES | MIC (S. aureus ATCC 29213) [µg/mL] | MIC (MSSA 1) [µg/mL] | MIC (MSSA 2) [µg/mL] | MIC (MRSA 3) [µg/mL] | MIC (MRSA 4) [µg/mL] | survival of infected mice (MRSA) [%] |
| --- | --- | --- | --- | --- | --- | --- |
| CC12CC34C=C(C#Cc5ccccc5)C(=O)C(C)(CCC(=O)Nc5c(O)ccc(C(=O)O)c5O)C3C(CC1C4)O2 (stereo not shown) [B7] | 1 (≈ 1.85 µM) | 1 (≈ 1.85 µM) | 1 (≈ 1.85 µM) | 1 (≈ 1.85 µM) | 1 (≈ 1.85 µM) |  |
| CC12CC34C=C(C#Cc5cccc(N)c5)C(=O)C(C)(CCC(=O)Nc5c(O)ccc(C(=O)O)c5O)C3C(CC1C4)O2 (stereo not shown) [B9] | 1 (≈ 1.8 µM) | 1 (≈ 1.8 µM) | 1 (≈ 1.8 µM) | 1 (≈ 1.8 µM) | 1 (≈ 1.8 µM) |  |
| Cc1ccc(C#CC2=CC34CC5CC(OC5(C)C3)C4C(C)(CCC(=O)Nc3c(O)ccc(C(=O)O)c3O)C2=O)cc1 (stereo not shown) [B10] | 8 (≈ 14.4 µM) | 4 (≈ 7.2 µM) | 4 (≈ 7.2 µM) | 8 (≈ 14.4 µM) | 4 (≈ 7.2 µM) |  |
| CCc1ccc(C#CC2=CC34CC5CC(OC5(C)C3)C4C(C)(CCC(=O)Nc3c(O)ccc(C(=O)O)c3O)C2=O)cc1 (stereo not shown) [B11] | 1 (≈ 1.76 µM) | 1 (≈ 1.76 µM) | 1 (≈ 1.76 µM) | 1 (≈ 1.76 µM) | 1 (≈ 1.76 µM) |  |
| CCCCc1ccc(C#CC2=CC34CC5CC(OC5(C)C3)C4C(C)(CCC(=O)Nc3c(O)ccc(C(=O)O)c3O)C2=O)cc1 (stereo not shown) [B12] | 8 (≈ 13.4 µM) | 8 (≈ 13.4 µM) | 8 (≈ 13.4 µM) | 8 (≈ 13.4 µM) | 8 (≈ 13.4 µM) |  |
| COc1ccc(C#CC2=CC34CC5CC(OC5(C)C3)C4C(C)(CCC(=O)Nc3c(O)ccc(C(=O)O)c3O)C2=O)cc1 (stereo not shown) [B13] | 1 (≈ 1.75 µM) | 1 (≈ 1.75 µM) | 1 (≈ 1.75 µM) | 1 (≈ 1.75 µM) | 1 (≈ 1.75 µM) |  |
| CC12CC34C=C(C#Cc5ccc(F)cc5)C(=O)C(C)(CCC(=O)Nc5c(O)ccc(C(=O)O)c5O)C3C(CC1C4)O2 (stereo not shown) [B14] | 1 (≈ 1.79 µM) | 1 (≈ 1.79 µM) | 1 (≈ 1.79 µM) | 1 (≈ 1.79 µM) | 1 (≈ 1.79 µM) |  |
| CC12CC34C=C(C#Cc5ccc(Cl)cc5)C(=O)C(C)(CCC(=O)Nc5c(O)ccc(C(=O)O)c5O)C3C(CC1C4)O2 (stereo not shown) [B15] | 1 (≈ 1.74 µM) | 1 (≈ 1.74 µM) | 1 (≈ 1.74 µM) | 1 (≈ 1.74 µM) | 1 (≈ 1.74 µM) |  |
| CC(=O)NC[C@H]1CN(c2ccc(N3CCOCC3)c(F)c2)C(=O)O1 [Linezolid, reference compound] | 1 (≈ 2.96 µM) | 1 (≈ 2.96 µM) | 1 (≈ 2.96 µM) | 1 (≈ 2.96 µM) | 1 (≈ 2.96 µM) |  |
| CN[C@H](CC(C)C)C(=O)N[C@H]1C(=O)N[C@@H](CC(N)=O)C(=O)N[C@H]2C(=O)N[C@H]3C(=O)N[C@H](C(=O)N[C@H](C(=O)O)c4cc(O)cc(O)c4-c4cc3ccc4O)[C@H](O)c3ccc(c(Cl)c3)Oc3cc2cc(c3O[C@@H]2O[C@H](CO)[C@@H](O)[C@H](O)[C@H]2O[C@H]2C[C@](C)(N)[C@H](O)[C@H](C)O2)Oc2ccc(cc2Cl)[C@H]1O [vancomycin, reference compound] |  |  |  |  |  | 100 |
